Source: US20040106584A1, “Prophylactic docosahexaenoic acid therapy for patients with subclinical inflammation” (priority 2002, published 2004)

Experiments:
[1] = cited from earlier work
[2] = test system: ADP-induced platelet aggregation; details: oral loading dose of 300-600 mg; cited from earlier work
[3] = in vivo; cited from earlier work
obese diabetic mice = details: 100 mg/kg body weight, but not normal or lean diabetic mice; cited from earlier work
C-reactive protein (CRP) = assay: Clinical study of DHASCO capsules co-administered with statin in dyslipidemia patients: CRP levels; format: in vivo, human; details: 20 patients treated with DHA, 200 or 1000 mg daily
Method: In a clinical study DHASCO capsules (which contained DHA as a triglyceride oil extracted from Crypthecodinium cohnii cells, obtained from Martek Biosciences Corp., Columbia, Md.) were co-administered with statin medication to patients with dyslipidemia. Hyperlipidemic patients already being treated with a stable dose of a statin medication but still failing to meet NCEP guidelines for LDL-cholesterol or triglycerides were treated with either 200 or 1000 mg of DHA daily for 12 months. HbAlc levels (glycosylated hemoglobin, a marker of glycemic control) were measured in plasma at baseline and after 8 or 12 months of treatment.
Reduction in CRP of this extent is clinically significant, and may be correlated with a benefit of reduced risk of Type II diabetes onset, independent of other Type II risk factors.

[4] = biological target: T1, platelet glycoprotein IIb/IIa receptors (Homo sapiens, UniProt P05106+P08514); details: cited from earlier work
T1 construct: host or cells: platelets in vivo (endogenous receptor)

CC(=O)Oc1ccccc1C(=O)O [Aspirin, acetylsalicylic acid]
reduction of the risk of serious vascular events ([1]; patients at high risk of such an event): about a quarter

COC(=O)[C@H](c1ccccc1Cl)N1CCc2sccc2C1 [Clopidogrel]
reduction of the risk of serious vascular events compared with aspirin ([1]; high-risk patients): about 10%
time to detectable inhibition of ADP-induced platelet aggregation [2]: 2 h
time to maximal inhibition of ADP-induced platelet aggregation [2]: 6 h
risk of skin rash and diarrhea compared with aspirin [3]: about a third

CC/C=C\C/C=C\C/C=C\C/C=C\C/C=C\C/C=C\CCC(=O)OCC [DHA ethyl ester]
blood glucose (obese diabetic mice): reduced
insulin sensitivity (obese diabetic mice): enhanced
plasma triglycerides (obese diabetic mice): reduced

CC/C=C\C/C=C\C/C=C\C/C=C\C/C=C\C/C=C\CCC(=O)O [DHA, docosahexaenoic acid]
overall reduction in CRP level (C-reactive protein (CRP)): 15%

Clc1ccccc1CN1CCc2sccc2C1 [Ticlopidine]
risk of skin rash and diarrhea compared with aspirin [3]: doubles

abciximab: humanized mouse antibody fragment with a high binding affinity for the glycoprotein IIb/IIa receptor
persistent blockade of platelet glycoprotein IIb/IIa receptors ([4]; 24 hours after cessation of an infusion): more than 50%
time to recovery of platelet function ([4]; after cessation of an infusion): 2 days
